From patent US11278555B2, “Combinational therapies for treatment of cancer comprising a bacteriochlorophyll derivative” (Yeda Research and Development Co. Ltd., priority 2016, dated 2022)

Legend:
MB49 tumors = assay: WST11 VTP, Gemzar and combination in immune compromised Rag1 KO versus WT mice bearing MB49 tumors; type: in vivo; conditions: Kaplan-Meier
Description: • (i) Bacteriochlorophyll Derivatives—The Bchl derivatives and RGD-conjugates thereof were provided by Steba Biotech (Rehovot, Israel). […] Concentration was verified by spectrophotometric measurement. STL-7012 was provided as dipotassium salt. Working solution was prepared by dissolving STL-7012 K^+ salt in 5% mannitol solution (1 mg/ml). […] WST11 was supplied as a powder and kept in the dark at −20° C. Stock was prepared by dissolving WST11 in DDW containing 5% glucose and 0.67% mannitol, aliquoted and lyophilized. Working solution was reconstituted with DDW and the concentration of solution was confirmed spectrophotometrically. Alternatively, Clinical WST11 (batch: P00611, and 10-130611) was supplied as lyophilized formulation. Material was dissolved in 5% dextrose, aliquoted and stored at −20° C. […] Whole body imaging of luciferase-transfected tumors and metastases were recorded five minutes following 75 mg Kg^−1 intraperitoneal (i.p.) injection of D-luciferin with respective filter sets. • (vi) PDT treatment protocol: 4T1-Luc cells were grafted in the mammary pad of Balb/c mice. […]

[1] = test system: splenic immune cells of 4T1-bearing mice; assay: FACS profile of splenic immune cell populations in 4T1-bearing mice after STL-6014 PDT and Gemzar; type: in vivo
Description: • (i) Bacteriochlorophyll Derivatives—The Bchl derivatives and RGD-conjugates thereof were provided by Steba Biotech (Rehovot, Israel). […] Concentration was verified by spectrophotometric measurement. STL-7012 was provided as dipotassium salt. Working solution was prepared by dissolving STL-7012 K^+ salt in 5% mannitol solution (1 mg/ml). […] WST11 was supplied as a powder and kept in the dark at −20° C. Stock was prepared by dissolving WST11 in DDW containing 5% glucose and 0.67% mannitol, aliquoted and lyophilized. Working solution was reconstituted with DDW and the concentration of solution was confirmed spectrophotometrically. Alternatively, Clinical WST11 (batch: P00611, and 10-130611) was supplied as lyophilized formulation. Material was dissolved in 5% dextrose, aliquoted and stored at −20° C. At the day of treatment the aliquot was thawed, filtered and the concentration of solution was confirmed spectrophotometrically. • (ii) Chemotherapeutic drugs preparation and storage—Gemcitabine (GEM, Gemzar®, Lilly) was purchased from a local pharmacy as a powder, dissolved in saline to a concentration of 38 mg/ml, aliquoted and stored at −20° C. Aliquots were thawed, diluted with saline to a desired concentration and used on the same day at a dose of 75 mg/kg. Cyclophosphamide (CTX, Endoxan®, Baxter Oncology Gmbh, Germany) was purchased from a local pharmacy. A stock solution of 20 mg/ml was prepared by dissolving in 0.9% NaCl, aliquoted and stored at −20° C. Aliquots were thawed, diluted with saline if needed to a desired concentration and used on the same day prepared at indicated doses. • (iii) Murine cell lines—Mammary luciferase (luc)-labeled 4T1 cell line (4T1-Luc) was a kind gift from Dr. Zvi Granot (Faculty of Medicine, The Hebrew University of Jerusalem, Israel); melanoma B16-F10 cell line was obtained from the American Type Culture Collection (ATCC, Manassas, Va.); bladder MB49 cell line was a kind gift from James Allison (MSKCC, New York, USA), and luc-labeled MB49-cell line was established using the murine stem cell virus (MSCV)-puromycin-luc-GFP construct (kindly provided by Dr. Emily Cheng, Human Oncology and Pathogenesis Program, MSKCC). 4T1 and MB49 cells were maintained in DMEM medium and B16-F10 cells in RPMI medium supplemented with 1 mmol/L sodium pyruvate, 10% fetal calf serum (FCS), 250 μg/ml hygromycin, 0.06 mg/ml penicillin and 0.1 mg/ml streptomycin. The cells were grown as monolayer at 37° C. in a humidified atmosphere (5% CO2, 95% air). • (iv) Murine tumor models—Female, Balb/c mice (6-8 week old) were grafted either subcutaneously (s.c.) into the right hind leg or orthotopically with 1×10^6 4T1 cells suspended in 50 or 1000 PBS. For the rechallenge study, 2×10^5 4T1 cells were orthotopically grafted. For bladder cancer model, 5×10^4 of MB49 or MB49-luciferase cell line were s.c. injected into the right flank of C57B/6 male mice (7-8 weeks old, Taconic, Hudson, N.Y.) 15 days prior to VTP treatment. For the efficacy study of VTP in immune compromised mice, the same number of MB49 cells was injected in the flank of Rag^−/− on C57B/6 background or C57B/6 male mice (7-8 week old, Jackson Laboratory, Bar Harbor, Me.). […] Whole body imaging of luciferase-transfected tumors and metastases were recorded five minutes following 75 mg Kg^−1 intraperitoneal (i.p.) injection of D-luciferin with respective filter sets. • (vi) PDT treatment protocol: 4T1-Luc cells were grafted in the mammary pad of Balb/c mice. […]

SMILES	overall survival of immune compromised (Rag1 KO) mice compared with WT mice (MB49 tumors)	percentage of G-MDSC/neutrophils and M-MDSC in spleen compared to control ([1]; first week post treatment)	effect on Treg populations in spleen compared with controls ([1]; mouse, in vivo)	impact on MDSCs in spleen relative to control ([1]; second week post treatment)
CCC1c2cc3[n-]c(c(CC(=O)OC)c4nc(cc5[n-]c(cc(n2)C1C)c(C(C)=O)c5C)C(C)C4CCC(=O)[O-])c(C(=O)NCCS(=O)(=O)[O-])c3C.[K+].[K+].[Pd+2] (stereo not shown) [WST11, Palladium 3^1-oxo-15-methoxycarbonylmethyl-rhodobacteriochlorin 13^1-(2-sulfoethyl) amide dipotassium salt]	statistically significant decrease	–	–	–
Nc1ccn([C@@H]2O[C@H](CO)[C@@H](O)C2(F)F)c(=O)n1 [Gemzar, Gemcitabine]	–	significantly reduced	Much smaller effects	diminished
